Test [1] has as its system secretion of TNF-α in human PBMCs. Briefly: In vitro IL-1β-induced cytokine (TNF-α) secretion of human PBMCs. It is filed as cell-based. Conditions: PBMC; human PBMCs stimulated with 20 ng/ml IL-1β for 24 hours. An excerpt: In Vitro IL-1β (Interleukin-1 beta, IL-1b)-Induced Cytokine Secretion of Human PBMCs (Peripheral Blood Mononuclear Cells)
The effect of the chemical compounds on the induced cytokine secretion of human PBMCs has been investigated. Here, the cytokine secretion has been induced by IL-1β which binding to its receptors leads to the activation of the MKNK signaling pathway.
Human PBMCs have been isolated from anti-coagulated human whole blood donated from healthy volunteers by pre-filling Leucosep tubes with ficoll-paque (15 ml, Biochrom, order ID: L6115) and adding 20 ml whole blood. After centrifugation of the blood at 800 g for 15 min at room temperature (RT) plasma including thrombocytes has been discarded. PBMCs were transferred to a new falcon tube, washed with PBS (phosphate-buffered saline) at 250 g for 10 min at RT and resuspended in complete medium [RPMI 1640, without L-glutamine (PAA, order ID: E15-039), 10% FCS; 50 U/ml Penicillin, 50 μg/ml Streptomycin (PAA, order ID: P11-010) and 1% L-glutamine (Sigma, order ID. G7513)]. The assay was performed in a 96-well plate at a cell density of 2.5×10^5 cells/well as triplicates. The compounds were serially diluted in DMSO and added to the PBMCs at a range of 3×10^−9 M to 1×10^−5M with a final concentration of 0.4% DMSO, respectively. Treatment of PBMCs with 0.4% DMSO was used as control. After 30 min of incubation, PBMCs were stimulated with 20 ng/ml IL-1β (R&D, order ID: 201-LB CF) for 24 hours. Cell viability was measured using the CellTiter-Glo Luminescent Assay (Promega, order ID: G7571) following the manufacturers protocol. The amount of secreted TNF-α (tumor necrosis factor-alpha) in the supernatant was determined using the Human Prolnflammatory 9-Plex (MSD, order ID: K15007B) according to manufacturer's instruction. The inhibitory activity was determined as the relation to the control in percent. IC50 values were calculated using the 4-parameter logistic model.

A further test addresses human full-length MKNK1 (Homo sapiens (Human), UniProt Q9BUB5, T344D). Briefly: MKNK1 kinase high ATP assay (TR-FRET). In kind it is biochemical. To be noted: high ATP (2 mM), 15 min preincubation with enzyme; read-out: MKNK1 IC50. The gist of the method: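 GST-tagged full-length MKNK1 (aa 1–424, T344D; insect-cell expressed) preincubated 15 min with compound, then reacted 30 min at 22 °C with 2 mM ATP and 0.06 μM biotinylated peptide (final) in HEPES pH 7.5 buffer. Phosphopeptide detected by TR-FRET 665/620 ratio, normalized to no-inhibitor and no-enzyme controls.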

Some results are limits rather than exact numbers.

Sequence of human full-length MKNK1 (Q9BUB5 other isoform, or with tags, fused parts or gaps T344D): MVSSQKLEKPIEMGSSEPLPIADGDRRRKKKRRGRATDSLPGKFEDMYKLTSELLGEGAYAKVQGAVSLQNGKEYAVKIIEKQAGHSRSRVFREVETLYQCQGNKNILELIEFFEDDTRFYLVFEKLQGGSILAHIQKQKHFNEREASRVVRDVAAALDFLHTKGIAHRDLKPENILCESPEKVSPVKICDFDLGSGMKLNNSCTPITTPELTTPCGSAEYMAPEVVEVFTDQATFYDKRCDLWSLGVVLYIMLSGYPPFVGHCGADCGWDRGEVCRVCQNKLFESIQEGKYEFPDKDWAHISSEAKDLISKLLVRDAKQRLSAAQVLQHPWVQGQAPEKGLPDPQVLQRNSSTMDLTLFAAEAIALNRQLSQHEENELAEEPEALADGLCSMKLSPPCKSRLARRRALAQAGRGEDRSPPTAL

Turning to `CN(C)C1CN(C(=O)[C@H]2CCc3c(sc4ncnc(Nc5cc6ccnn6cc5Cl)c34)C2)C1` [Example 54, (7S)-4-[(6-Chloropyrazolo[1,5-a]pyridin-5-yl)amino]-5,6,7,8-tetrahydro[1]benzothieno[2,3-d]pyrimidin-7-yl[3-(dimethylamino)azetidin-1-yl]methanone], the figures for the IC50 (in test [1]; at human full-length MKNK1) were 10 to 100 nM and 11 nM, respectively.
The corresponding values for `COc1cn2nccc2cc1Nc1ncnc2sc3c(c12)CC[C@H](C(=O)N(C)C)C3` [Example 15, (7S)-4-[(6-Methoxypyrazolo[1,5-a]pyridin-5-yl)amino]-N,N-dimethyl-5,6,7,8-tetrahydro[1]benzothieno[2,3-d]pyrimidine-7-carboxamide] are 10 to 100 nM and 4 nM.
Regarding `COc1cn2nccc2cc1Nc1ncnc2sc3c(c12)CC[C@H](C(=O)N(C)CCO)C3` [Example 103, (7S)—N-(2-Hydroxyethyl)-4-[(6-methoxypyrazolo [1,5-a]pyridin-5-yl)amino]-N-methyl-5,6,7,8-tetrahydro[1]benzothieno[2,3-d]pyrimidine-7-carboxamide], the IC50 – broadly, the concentration that gives 50% inhibition – in test [1] is 1 to 10 nM; on human full-length MKNK1, 3 nM.
`COc1cn2nccc2cc1Nc1ncnc2sc3c(c12)CC[C@H](C(=O)N1CCN(C)CC1)C3` [Example 113, (7S)-4-[(6-Methoxypyrazolo[1,5-a]pyridin-5-yl)amino]-5,6,7,8-tetrahydro[1]benzothieno[2,3-d]pyrimidin-7-yl(4-methylpiperazin-1-yl)methanone]: the IC50 in test [1] was 10 to 100 nM; at human full-length MKNK1, 1 nM.
On to `COc1cn2nccc2cc1Nc1ncnc2sc3c(c12)CC[C@H](C(=O)N1CC(C)(O)C1)C3` [Example 100, (3-Hydroxy-3-methylazetidin-1-yl)(7S)-4-[(6-methoxypyrazolo[1,5-a]pyridin-5-yl)amino]-5,6,7,8-tetrahydro[1]benzothieno[2,3-d]pyrimidin-7-ylmethanone], for which the half-maximal inhibitory concentration (IC50) in test [1] is 1 to 10 nM; at human full-length MKNK1, under 1 nM.
Consider `CN(C)C1CCN(C(=O)[C@H]2CCc3c(sc4ncnc(Nc5ccn6nccc6c5)c34)C2)CC1` [Example 32, [4-(Dimethylamino)piperidin-1-yl][(7S)-4-(pyrazolo[1,5-a]pyridin-5-ylamino)-5,6,7,8-tetrahydro[1]benzothieno[2,3-d]pyrimidin-7-yl]methanone], for which the IC50 in test [1] was 10 to 100 nM; on human full-length MKNK1 it was 25 nM.
With `CN(CCN)C(=O)[C@H]1CCc2c(sc3ncnc(Nc4ccn5nccc5c4)c23)C1` [Example 39, (7S)—N-(2-Aminoethyl)-N-methyl-4-(pyrazolo[1,5-a]pyridin-5-ylamino)-5,6,7,8-tetrahydro[1]benzothieno[2,3-d]pyrimidine-7-carboxamide], the IC50 is at least 100 nM in test [1] and 41 nM on human full-length MKNK1.
For the molecule `CN(C)CCCN(C)C(=O)[C@H]1CCc2c(sc3ncnc(Nc4ccn5nccc5c4)c23)C1` [Example 27, (7S)—N-[3-(Dimethylamino)propyl]-N-methyl-4-(pyrazolo[1,5-a]pyridin-5-ylamino)-5,6,7,8-tetrahydro[1]benzothieno[2,3-d]pyrimidine-7-carboxamide], the half-inhibitory concentration (IC50) in test [1] is at least 100 nM; at human full-length MKNK1, 13 nM.
Regarding `COc1cn2nccc2cc1Nc1ncnc2sc3c(c12)CC[C@H](C(=O)N1CC(C#N)C1)C3` [Example 98, 1-((7S)-4-[(6-Methoxypyrazolo[1,5-a]pyridin-5-yl)amino]-5,6,7,8-tetrahydro[1]benzothieno[2,3-d]pyrimidin-7-ylcarbonyl)azetidine-3-carbonitrile], the IC50 is at least 100 nM in test [1] and 1 nM at human full-length MKNK1.
The corresponding values for `COc1cn2nccc2cc1Nc1ncnc2sc3c(c12)CC[C@H](C(=O)N1CC[C@@H](N(C)C)C1)C3` [Example 106, [(3R)-3-(Dimethylamino)pyrrolidin-1-yl](7S)-4-[(6-methoxypyrazolo[1,5-a]pyridin-5-yl)amino]-5,6,7,8-tetrahydro[1]benzothieno[2,3-d]pyrimidin-7-ylmethanone] are 1 to 10 nM and under 1 nM.
Regarding `COc1cn2nccc2cc1Nc1ncnc2sc3c(c12)CC[C@H](C(=O)N1CC(N(C)C)C1)C3` [Example 102, [3-(Dimethylamino)azetidin-1-yl](7S)-4-[(6-methoxypyrazolo[1,5-a]pyridin-5-yl)amino]-5,6,7,8-tetrahydro[1]benzothieno[2,3-d]pyrimidin-7-ylmethanone], the values for the IC50 (in test [1]; at human full-length MKNK1) were 10 to 100 nM and 2 nM, respectively.
In the case of `COc1cn2nccc2cc1Nc1ncnc2sc3c(c12)CC[C@H](C(=O)NC(C)C)C3` [Example 85, (7S)-4-[(6-Methoxypyrazolo[1,5-a]pyridin-5-yl)amino]-N-(propan-2-yl)-5,6,7,8-tetrahydro[1]benzothieno[2,3-d]pyrimidine-7-carboxamide], the results for the IC50 (in test [1]; at human full-length MKNK1) were 1 to 10 nM and 4 nM, respectively.
Regarding `CN(C)CCCN(C)C(=O)[C@H]1CCc2c(sc3ncnc(Nc4cc5ccnn5cc4Cl)c23)C1` [Example 51, (7S)-4-[(6-Chloropyrazolo[1,5-a]pyridin-5-yl)amino]-N-[3-(dimethylamino)propyl]-N-methyl-5,6,7,8-tetrahydro[1]benzothieno[2,3-d]pyrimidine-7-carboxamide], the values for the half-maximal inhibitory concentration (IC50) (in test [1]; at human full-length MKNK1) were 10 to 100 nM and 5 nM, respectively.
With `COc1cn2nccc2cc1Nc1ncnc2sc3c(c12)CC[C@H](C(=O)N(C)CC(F)F)C3` [Example 95, (7S)—N-(2,2-Difluoroethyl)-4-[(6-methoxypyrazolo[1,5-a]pyridin-5-yl)amino]-N-methyl-5,6,7,8-tetrahydro[1]benzothieno[2,3-d]pyrimidine-7-carboxamide], the IC50 was 10 to 100 nM in test [1] and 2 nM on human full-length MKNK1.
For `CN(C)CCN(C)C(=O)[C@H]1CCc2c(sc3ncnc(Nc4cc5ccnn5cc4Cl)c23)C1` [Example 53, (7S)-4-[(6-Chloropyrazolo[1,5-a]pyridin-5-yl)amino]-N-[2-(dimethylamino)ethyl]-N-methyl-5,6,7,8-tetrahydro[1]benzothieno[2,3-d]pyrimidine-7-carboxamide], the IC50 is at least 100 nM in test [1] and 9 nM on human full-length MKNK1.
On to `COc1cn2nccc2cc1Nc1ncnc2sc3c(c12)CC[C@H](C(=O)N1CCOCC1)C3` [Example 116, (7S)-4-[(6-Methoxypyrazolo[1,5-a]pyridin-5-yl)amino]-5,6,7,8-tetrahydro[1]benzothieno[2,3-d]pyrimidin-7-yl(morpholin-4-yl)methanone], for which the IC50 is 10 to 100 nM in test [1] and 1 nM at human full-length MKNK1.
For `COCCN(C)C(=O)[C@H]1CCc2c(sc3ncnc(Nc4cc5ccnn5cc4OC)c23)C1` [Example 104, (7S)—N-(2-Methoxyethyl)-4-[(6-methoxypyrazolo[1,5-a]pyridin-5-yl)amino]-N-methyl-5,6,7,8-tetrahydro[1]benzothieno[2,3-d]pyrimidine-7-carboxamide] the same measures were 1 to 10 nM and 1 nM.
Turning to `COc1cn2nccc2cc1Nc1ncnc2sc3c(c12)CC[C@H](C(=O)N1CCOC[C@@H]1C)C3` [Example 125, (7S)-4-[(6-Methoxypyrazolo[1,5-a]pyridin-5-yl)amino]-5,6,7,8-tetrahydro[1]benzothieno[2,3-d]pyrimidin-7-yl[(3S)-3-methylmorpholin-4-yl]methanone], the IC50 in test [1] is at least 100 nM; at human full-length MKNK1 it was 1 nM.

The record behind these values is patent publication US10487092B2, “Pyrazolopyridinamines as MKNK1 and MKNK2 inhibitors” (BAYER PHARMA AKTIENGESELLSCHAFT, priority 2014, dated 2019).
